Laboratory results reported in the NIST ThermoML archive (doi:10.1016/j.jct.2011.02.008).

Details: Liquid, Vibrating tube method

CCCCCCO [hexan-1-ol]
mass density [kg/m3]
Details	278.15 K	288.15 K	298.15 K	308.15 K	318.15 K	328.15 K	338.15 K	348.15 K	358.15 K
100 kPa	828.9	822.1	814.9	807.8	800.5	793	785.4	777.6	769.4
1000 kPa	829.5	822.7	815.6	808.4	801.2	793.7	786.2	778.4	770
5000 kPa	832	825.3	818.4	811.4	804.3	797	789.6	782	774.2
10000 kPa	835	828.5	821.7	814.8	807.9	800.8	793.6	786.2	778.6
15000 kPa	838	831.6	824.9	818.2	811.4	804.4	797.4	790.2	782.8
20000 kPa	840.8	834.6	828	821.4	814.7	807.9	801	794.1	786.9
25000 kPa	843.6	837.4	830.9	824.5	817.9	811.2	804.5	797.6	790.7
30000 kPa	846.3	840.2	833.8	827.5	821	814.4	807.9	801.2	794.3
35000 kPa	848.9	842.9	836.6	830.3	824	817.6	811.1	804.6	797.9
40000 kPa	851.4	845.5	839.4	833.2	826.9	820.6	814.2	807.8	801.3
45000 kPa	853.9	848	842	835.9	829.7	823.5	817.3	811	804.6
50000 kPa	856.3	850.5	844.6	838.5	832.4	826.4	820.2	814	807.7
55000 kPa	858.7	853	847.1	841.1	835.1	829.1	823.1	817	810.8
60000 kPa	860.9	855.4	849.6	843.5	837.7	831.6	825.7	819.7	813.5

COC(=O)c1ccccc1 [methyl benzoate]
mass density [kg/m3]
Details	278.15 K	288.15 K	298.15 K	308.15 K	318.15 K	328.15 K	338.15 K	348.15 K	358.15 K
100 kPa	1101.5	1092.1	1082.7	1073	1063.3	1053.6	1044.1	1034.4	1024.9
1000 kPa	1102.1	1092.6	1083.2	1073.6	1063.8	1054.3	1044.8	1035.1	1025.6
5000 kPa	1104.4	1095	1085.8	1076.2	1066.7	1057.2	1048	1038.4	1029.1
10000 kPa	1107.2	1097.9	1089	1079.5	1070.1	1060.8	1051.7	1042.4	1033.3
15000 kPa	1109.9	1100.8	1091.8	1082.6	1073.4	1064.3	1055.3	1046.2	1037.3
20000 kPa	1112.6	1103.6	1094.8	1085.7	1076.6	1067.6	1058.8	1049.8	1041.2
25000 kPa	1115.2	1106.3	1097.6	1088.6	1079.7	1070.9	1062.2	1053.4	1044.9
30000 kPa	1117.7	1109	1100.4	1091.5	1082.8	1074	1065.5	1056.9	1048.5
35000 kPa	1120.2	1111.6	1103.1	1094.3	1085.7	1077.1	1068.8	1060.3	1052
40000 kPa	1122.7	1114.1	1105.7	1097.1	1088.6	1080.1	1071.9	1063.5	1055.4
45000 kPa	1125.1	1116.6	1108.3	1099.8	1091.4	1083	1074.9	1066.7	1058.7
50000 kPa	1127.4	1119.1	1110.9	1102.4	1094.1	1085.9	1077.9	1069.8	1061.9
55000 kPa	1129.7	1121.4	1113.4	1105	1096.8	1088.7	1080.8	1072.8	1065.1
60000 kPa	1131.8	1123.6	1115.6	1107.4	1099.3	1091.2	1083.5	1075.5	1067.9
